Reference: patent publication US20230263729A1, “POLY(ETHYLENE GLYCOL)-BLOCK-POLY(PROPYLENE SULFIDE) NANOCARRIER PLATFORM FOR ENHANCED EFFICACY OF IMMUNOSUPPRESSIVE AGENTS” (Northwestern University, priority 2019, published 2023)
Values after ≈ are worked out from the molar mass of the structure shown. Read-outs that look alike come from different tables or passages of the source.

Columns and labels:
[1] = tested on: atherosclerotic lesions; experiment: Atherosclerotic lesion quantification and immunohistochemistry after 8 weeks treatment; format: in vivo, ApoE−/− mice; conditions: total aVD dose 800 ng over 8 weeks
Description: Treatment—Male ApoE^−/− mice at 8-weeks of age were fed a high-fat diet (HFD, Harlan Teklad TD.88137, 42% kcal from fat) for 4 weeks. Treatments were performed from week 12 and 100 μl of different treatments: 1, PBS (control); 2, free aVD (1 μg/ml); 3, PS-aVD; 4, P-D2-PEG5-PS-aVD; 5, P210/P-D2-PEG5-PS-aVD (2, 3, 4, 5 groups with the same aVD concentration of 1 μg/ml) were subsequently i.v. administrated every week for 8 weeks. During those weeks, mice were maintained on a high-fat diet, and the activities and body weight was monitored. In vivo experiments were performed with group sizes of N=5-6 mice per group and then independently repeated for a total of N=10-12 mice per group.
Atherosclerotic lesion quantification and immunohistochemistry—For atherosclerotic lesion analysis, mice were anesthetized and aortas were carefully harvested after perfusion with PBS under a microscope. The heart with ascending aorta was fixed with 4% paraformaldehyde (PFA)/5% sucrose in PBS solution 12 h at 4° C. […] For quantitative analysis of atherosclerotic lesions, 5-7 separate cross-sections from each mouse were stained with Oil Red 0 (ORO) (Sigma) for 1 h at 37° C. and 4′,6-diamidino-2-phenylindole (DAPI) for 5 min. […] An in-house software written in Python was developed for automated and quantitative image analysis (FIG. 16) […]

[2] = tested on: atherosclerotic plaque; conditions: orally to mice, total dose 4800 ng over 12 weeks; cited from earlier work
[3] = tested on: BMDCs; experiment: BMDC activation and maturation in vitro (surface markers, IL12p70 ELISA); format: cell-based, C57BL/6 mice; conditions: aVD 10^−8 M; LPS and IFN-γ stimulation
Description: Assessment of BMDC activation and maturation in vitro—BMDCs were cultured at a density of 1×10^6/ml and were incubated at 37° C. with 5% CO2 for 10 days. Free aVD, aVD-loaded PS (PS-aVD) or aVD-loaded P-D2-PEG5-PS (P-D2-PEG5-PS-aVD) with the aVD concentration of 10^−8 M were added when the media was refreshed on days 3 and 6. On day 7, 10 ng/ml murine recombinant interferon (IFN-γ) and 1 μg/ml LPS were added to stimulate dendritic cell maturation. At day 10, BMDCs were collected, washed with PBS and then incubated with anti-mouse CD16/CD32 to block FcRs and Zombie Aqua fixable viability dye to determine live/dead cells for 20 min. Cells were washed with PBS and stained with antibody cocktail (CD11c, […] CD80, and CD86) (Table 1) for 35 min at 4° C. BMDC maturation was determined by characterizing the cell surface marker expression using FACSDiva on a LSRII flow cytometer (BD Biosciences). Over 20,000 events were recorded for each sample and data were analyzed with FlowJo software. Different concentrations of P-D2-PEG5-PS-aVD (aVD concentration=0, 10^−9, and 10^−8 M) were also investigated on BMDC maturation using the same procedure described above. […] IL12p70 secretion in supernatant of the cell culture in the last 48 h were determined by enzyme-linked immunosorbent assay (ELISA) following the manufacturer's instructions (Fisher Thermo Scientific).

[4] = tested on: RAW 264.7 cells; experiment: Apoptosis of RAW 264.7 cells with or without LPS; format: cell-based; conditions: 1 μg/mL celastrol, 4 h
Description: Celastrol has been investigated as a potential anti-cancer therapeutic due to its ability to induce cell death, and potentially binds to a number of proteins involved in apoptosis. As the manner of cell death can influence the downstream immune response, the onset of apoptosis upon treatment with celastrol was evaluated. Since NF-κB signalling in RAW 264.7 cells results in the secretion of TNF-α (FIG. 27C), an inducer of apoptosis in some contexts as well as cell survival and proliferation in others, the effect of the presence or absence of LPS during celastrol treatment on the induction of apoptosis or necrosis was assessed.

[5] = tested on: NF-κB; experiment: NF-κB inhibition assay in RAW Blue cells (SEAP reporter); format: cell-based; conditions: read-out: half maximal effective concentration (EC50), NF-κB inhibition
Description: Inhibition assays—NF-κB inhibition by celastrol was assayed using RAW Blue cells (Invivogen), a stably transfected cell line derived from RAW 264.7 macrophage-like cells, which contain the gene for secreted alkaline phosphatase (SEAP) downstream of the NF-κB promoter. Cells were seeded into a 96 well plate at 50,000 cells per well. NF-κB signalling was induced using 100 ng/mL LPS, with celastrol-loaded micelles and free celastrol (0.1% THF in 1×PBS vehicle) added to the cells concurrent with LPS administration. All micelle formulations contained the same amount of polymer (15 mg/mL) but were loaded with variable amounts of celastrol, and free celastrol formulations were prepared to match the concentration of loaded celastrol within Cel-MC formulations. Free celastrol formulation were made by diluting celastrol stock solutions in THF with 1×PBS to reach the appropriate celastrol concentration and 0.1% THF in 1×PBS. Cells were incubated for 16 hours, as per assay instructions, before supernatant was collected for quantification of SEAP activity, as described by the manufacturer. Colorimetric quantification of SEAP activity was performed on an M3 plate reader (SpectraMax) at an absorbance wavelength of 630 nm.

[6] = Celastrol quantification by HPLC: solubility, encapsulation efficiency, loading capacity, release; format: physicochemical
Description: Celastrol quantification—Celastrol solubility, encapsulation efficiency, and loading capacity were all assessed using high performance liquid chromatography (HPLC) using a Thermo Scientific C18 reverse phase column, with dimethylformamide (DMF) as the mobile phase at 0.5 mL/min. Area under the curve quantification of celastrol absorbance at 280 nm was performed using Thermo Fisher Chromeleon 7 software. A celastrol standard curve was constructed, with good linearity between celastrol concentrations of 2 mg/mL to 12.5 μg/mL, with 6.25 μg/mL being too close to the limit of detection for inclusion in the standard curve.
To determine the loading capacity of celastrol in micelles, defined here as the highest achievable mass of celastrol that can be stably loaded into 1 mg of micelles in 100 μL of 1×PBS, 1 mg of celastrol was added to 1 mg of PEG45-b-PPS20-Benzyl polymer in 500 uL THF in an HPLC vial. THF was removed by vacuum desiccation and micelles were formed via thin film rehydration with 100 μL of 1×PBS. […] Both samples (column filtered and unfiltered) were then lyophilized and redissolved in 200 μL DMF and celastrol content was quantified via HPLC.
To determine the encapsulation efficiency of celastrol in micelles, defined as the percentage of the originally added celastrol mass that is stably encapsulated in micelles after filtration to remove unencapsulated celastrol, micelles were formed as described above with variable amounts of celastrol, and were filtered using an LH-20 column. Filtered micelles were lyophilized and redissolved in 200 μL DMF and celastrol content was quantified via HPLC.
To determine the solubility of celastrol in aqueous buffer, 1 mg of celastrol was added to a glass vial along with 10 mL of 1×PBS. […] The lyophilized powder was resuspended in 200 μL DMF and celastrol was quantified via HPLC.
Celastrol release from micelles into 1×PBS with or without oxidative trigger was determined as follows. […] Absorbance at 424 nm, an absorbance peak for celastrol, were taken using a SpectraMax M3 plate reader using a 96-well plate.

[7] = tested on: RAW 264.7 cells; experiment: Cytotoxicity assay (calcein-AM / ethidium homodimer); format: cell-based
Description: Cytotoxicity assays—RAW 264.7 cells were plated into a 96 well black wall plates at 50,000 cells per well. Cells were then treated with Cel-MC or free celastrol, formulated as described above for the inhibition assays. After 16 h of incubation with free celastrol or Cel-MC formulations, cells were washed and incubated with 4 μM calcein-AM and 2 μM ethidium homodimer (Thermo Fisher), as described by the manufacturer. Readings were performed on an M3 plate reader, at excitation/emission wavelengths of 488/530 nm and 488/635 nm for calcein and ethidium homodimer, respectively. Readings were normalized as described by the manufacturer, accounting for background fluorescence and setting 100% viability for untreated cells and 0% viability for cells incubated with 100% methanol for 15 minutes.

[8] = in vivo; cited from earlier work

Structure (SMILES)	improvements in plaque area and macrophage content at the same dosage [1]	decrease in plaque area [2] [%]	reduction in macrophage accumulation [2] [%]	expression of MHC-II, CD80 and CD86 by stimulated BMDCs [3]	apoptotic cells ([4]; in the absence of LPS) [%]	apoptotic cells ([4]; in the presence of LPS) [%]	EC50 ([5]; 100 ng/mL LPS, 16 hours) [µg/mL]	EC50 ([5]; LPS) [µg/mL]	theoretical solubility in nanocarriers, times higher than unencapsulated celastrol [6]	theoretical celastrol ‘solubility’ in 1×PBS when loaded in PEG-b-PPS nanocarriers ([6]; 200 mg/mL of polymer, loading capacity 22%) [µg/mL]	solubility at 1 h ([6]; aqueous buffer, thermodynamic from solid, detected in 1 mL of 1×PBS at 37 C, read-out: celastrol dissolved in aqueous buffer (solubility)) [µg/mL]	cell viability as the dosage of celastrol is decreased [7]	cytotoxicity to RAW 264.7 cells ([7]; 0.8 mg/mL celastrol)	serum half-life (T1/2β) [8] [h]
C=C1/C(=C\C=C2/CCC[C@]3(C)[C@@H]([C@H](C)CCCC(C)(C)O)CC[C@@H]23)C[C@@H](O)C[C@@H]1O [aVD, 1, 25-Dihydroxyvitamin D3]	no	39	29	significantly decreased expression	–	–	–	–	–	–	–	–	–	–
CC1=C(O)C(=O)C=C2C1=CC=C1[C@@]2(C)CC[C@@]2(C)[C@@H]3C[C@](C)(C(=O)O)CC[C@]3(C)CC[C@]12C [celastrol]	–	–	–	–	16.5±1.8	37.5±4.4	0.2 (≈ 0.444 µM)	0.2 (≈ 0.444 µM)	over 10,000 times	44000	3.5 (≈ 7.77 µM)	not	highly cytotoxic	8 to 10
